{"source": "patent US20170247366A1", "about": "“SUBSTITUTED 4-ALKOXYPICOLINAMIDE ANALOGS AS MGLUR5 NEGATIVE ALLOSTERIC MODULATORS AND METHODS OF MAKING AND USING THE SAME” (VANDERBILT UNIVERSITY, priority 2014, published 2017)", "data": [{"biological_target": "T1, rat mGluR5 (Rattus norvegicus, UniProt P31424)", "T1 construct": "expressed in transfected cells", "T1 sequence (P31424 21-1203)": "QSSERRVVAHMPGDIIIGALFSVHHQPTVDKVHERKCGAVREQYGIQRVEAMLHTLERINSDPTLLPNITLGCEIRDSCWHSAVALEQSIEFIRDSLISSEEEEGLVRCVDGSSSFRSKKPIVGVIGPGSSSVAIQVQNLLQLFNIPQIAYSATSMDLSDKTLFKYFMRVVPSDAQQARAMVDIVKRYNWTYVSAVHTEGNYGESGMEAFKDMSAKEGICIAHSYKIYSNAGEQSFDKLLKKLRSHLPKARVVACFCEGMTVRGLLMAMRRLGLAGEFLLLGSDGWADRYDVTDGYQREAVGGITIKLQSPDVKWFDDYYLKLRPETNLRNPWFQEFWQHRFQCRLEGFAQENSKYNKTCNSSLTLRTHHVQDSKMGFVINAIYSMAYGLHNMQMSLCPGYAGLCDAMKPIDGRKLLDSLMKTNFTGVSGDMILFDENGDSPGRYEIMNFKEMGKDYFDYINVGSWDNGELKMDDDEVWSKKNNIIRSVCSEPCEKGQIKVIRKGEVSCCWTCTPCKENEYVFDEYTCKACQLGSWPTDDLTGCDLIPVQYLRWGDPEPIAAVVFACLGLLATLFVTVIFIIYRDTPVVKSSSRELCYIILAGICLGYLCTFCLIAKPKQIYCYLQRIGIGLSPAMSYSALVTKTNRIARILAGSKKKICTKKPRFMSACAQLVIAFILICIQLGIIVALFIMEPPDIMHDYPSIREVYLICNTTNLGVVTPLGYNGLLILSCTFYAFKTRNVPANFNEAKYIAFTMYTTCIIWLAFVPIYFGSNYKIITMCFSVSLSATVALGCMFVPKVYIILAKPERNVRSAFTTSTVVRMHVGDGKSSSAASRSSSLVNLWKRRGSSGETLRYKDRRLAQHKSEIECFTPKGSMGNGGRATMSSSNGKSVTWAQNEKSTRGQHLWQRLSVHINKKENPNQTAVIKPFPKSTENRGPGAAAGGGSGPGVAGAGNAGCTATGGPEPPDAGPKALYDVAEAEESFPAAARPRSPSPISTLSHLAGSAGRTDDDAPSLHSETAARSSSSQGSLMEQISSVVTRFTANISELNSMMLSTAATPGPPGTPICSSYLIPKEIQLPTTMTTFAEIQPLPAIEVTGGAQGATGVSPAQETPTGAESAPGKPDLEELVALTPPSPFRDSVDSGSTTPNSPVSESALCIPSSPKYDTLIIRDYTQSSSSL", "experiment": "mGluR5 calcium flux assay in HEK 293A cells, negative allosteric modulation of glutamate EC80 response", "type": "cell-based", "settings": "HEK cells transfected with rat mGluR5; glutamate EC80; ± is standard error of at least three experiments", "procedure": "HEK 293A cells stably expressing either rat or human mGluR5 were plated in black-walled, clear-bottomed, poly-D-lysine coated 384-well plates in 20 μL of assay medium (DMEM containing 10% dialyzed FBS, 20 mM HEPES, 100 units/mL penicillin/streptomycin plus 250 ng/mL Fungizone, and 1 mM sodium pyruvate) at a density of 20K cells/well. The cells were grown overnight at 37° C. in the presence of 5% CO2. The next day, medium was removed and the cells incubated with 20 μL of 2.3 µM Fluo-4, AM prepared as a 2.3 mM stock in DMSO and mixed in a 1:1 ratio with 10% (w/v) pluronic acid F-127 and diluted in assay buffer (Hank's balanced salt solution, 20 mM HEPES, and 2.5 mM probenecid) for 45 minutes at 37° C. Dye was removed, 20 μL of assay buffer was added, and the plate was incubated for 5 minutes at room temperature.\nCa^2+ flux was measured using the Functional Drug Screening System (FDSS7000, Hamamatsu, Japan). After establishment of a fluorescence baseline for about 3 seconds, the compounds of the present invention were added to the cells, and the response in cells was measured. 2.3 minutes later an EC20 concentration of the mGluR5 receptor agonist glutamate was added to the cells, and the response of the cells was measured for 1.9 minutes; an EC80 concentration of agonist was added and readings taken for an additional 1.7 minutes. All test compounds were dissolved and diluted to a concentration of 10 mM in 100% DMSO. Compounds were then serially diluted 1:3 in DMSO into 10 point concentration response curves, transferred to daughter plates, and further diluted into assay buffer to a 2× stock. Calcium fluorescence measures were recorded as fold over basal fluorescence; raw data was then normalized to the maximal response to glutamate. Antagonism of the agonist response of the mGluR5 receptor in the present invention was observed as a decrease in response to nearly maximal concentrations of glutamate in the presence of compound compared to the response to glutamate in the absence of compound.\nThe raw data file containing all time points was used as the data source in the analysis template. This was saved by the FDSS as a tab-delimited text file. Data were normalized using a static ratio function (F/F0) for each measurement of the total 360 values per well divided by each well's initial value. Data were then reduced to peak amplitudes (Max−Initial Min) using a time range that starts approximately 3 seconds prior to the glutamate EC20/EC80 addition and continues for approximately 90-120 seconds. This is sufficient time to capture the peak amplitude of the cellular calcium response. Individual amplitudes were expressed as % EMax by multiplying each amplitude by 100 and then dividing the product by the mean of the amplitudes derived from the glutamate ECMax-treated wells. IC50 values for test compounds were generated by fitting the normalized values versus the log of the test compound concentration (in mol/L) using a 4 parameter logistic equation where none of the parameters were fixed. Each of the three values collected at each concentration of test compound were weighted evenly.\nFor NAMs with a CRC that plateaus above 10% Glu Max, the IC50 values are reported, the compound is designated a “partial NAM” and the % Glu Max is reported. […] Compounds without measurable activity are designated as “>30,000 nM” since the top concentration of compound tested in the assay is 30 µM. Exemplary data are provided in Tables 1 and 2 below.\nTable 1 below lists specific compounds, experimentally determined molecular mass, and mGluR5 activity determined in a cell-based assay. The mGluR5 activity was determined using the metabotropic glutamate receptor activity assays in human embryonic kidney cells as described herein, wherein the human embryonic kidney cells were transfected with rat mGluR5. The mGluR5 activity data for some compounds are shown as the average of at least three experiments with the standard error in these cases. […]", "units": {"IC50": "nM"}, "values": [{"smiles": "Cc1cc(OC2CCCC2)cc(C(=O)Nc2ccccn2)n1", "IC50": 182}, {"smiles": "Cc1cc(OC2CCCC2)cc(C(=O)Nc2nc(C)cs2)n1", "IC50": 149}, {"smiles": "Cc1cc(O[C@@H]2CCOC2)cc(C(=O)Nc2ccc(F)cn2)n1", "IC50": "41 ± 3"}, {"smiles": "Cc1cc(OC2CCC2)cc(C(=O)Nc2ccc(F)cn2)n1", "IC50": 182}, {"smiles": "Cc1cc(OC[C@@H]2CCOC2)cc(C(=O)Nc2ccc(F)cn2)n1", "IC50": 469}, {"smiles": "Cc1cc(OC[C@H]2CCOC2)cc(C(=O)Nc2ccccn2)n1", "IC50": 972}, {"smiles": "Cc1cc(OC[C@H]2CCOC2)cc(C(=O)Nc2nc(C)cs2)n1", "IC50": 364}, {"smiles": "COCCOc1cc(C)nc(C(=O)Nc2ccc(F)cn2)c1", "IC50": 527}, {"smiles": "Cc1cccc(NC(=O)c2cc(OC3COC3)cc(C)n2)n1", "IC50": 59}, {"smiles": "COc1cccc(NC(=O)c2cc(OC3COC3)cc(C)n2)n1", "IC50": 1050}, {"smiles": "Cc1cc(OC2COC2)cc(C(=O)Nc2cccc(Cl)n2)n1", "IC50": 162}, {"smiles": "COc1ccc(NC(=O)c2cc(OC3COC3)cc(C)n2)nc1", "IC50": 1390}, {"smiles": "Cc1cc(OC2COC2)cc(C(=O)Nc2ccc(Cl)cn2)n1", "IC50": 1530}, {"smiles": "Cc1cc(OC2CC3(COC3)C2)cc(C(=O)Nc2ccccn2)n1", "IC50": 1680}, {"smiles": "Cc1cc(OC2CC3(COC3)C2)cc(C(=O)Nc2nc(C)cs2)n1", "IC50": 433}, {"smiles": "Cc1cc(OCC2COCCO2)cc(C(=O)Nc2ccc(F)cn2)n1", "note": "(stereo not drawn)", "IC50": 7680}, {"smiles": "Cc1cc(OC2CCSC2)cc(C(=O)Nc2ccccn2)n1", "note": "(stereo not drawn)", "IC50": 39}, {"smiles": "Cc1cc(OC2CCSC2)cc(C(=O)Nc2nc(C)cs2)n1", "note": "(stereo not drawn)", "IC50": 77}, {"smiles": "Cc1ccc(NC(=O)c2cc(OC3COC3)cc(C)n2)nc1", "IC50": 1480}, {"smiles": "Cc1cc(OC2CC3(COC3)C2)cc(C(=O)Nc2ccc(F)cn2)n1", "IC50": 3710}, {"smiles": "Cc1cc(OCC2COCCO2)cc(C(=O)Nc2ccccn2)n1", "note": "(stereo not drawn)", "IC50": 1780}, {"smiles": "Cc1cc(OCC2COCCO2)cc(C(=O)Nc2nc(C)cs2)n1", "note": "(stereo not drawn)", "IC50": 616}, {"smiles": "Cc1cc(OC2CCSC2)cc(C(=O)Nc2ccc(F)cn2)n1", "note": "(stereo not drawn)", "IC50": 75}, {"smiles": "Cc1cc(OC2(C)COC2)cc(C(=O)Nc2ccc(F)cn2)n1", "IC50": 863}, {"smiles": "Cc1cc(O[C@H]2CO[C@H](C)C2)cc(C(=O)Nc2ccc(F)cn2)n1", "IC50": "175 ± 21"}, {"smiles": "Cc1cc(O[C@H]2CO[C@@H](C)C2)cc(C(=O)Nc2ccc(F)cn2)n1", "IC50": "4470 ± 260"}, {"smiles": "Cc1cc(O[C@H]2CO[C@H](C)C2)cc(C(=O)Nc2nc(C)cs2)n1", "IC50": "81 ± 13"}, {"smiles": "Cc1cc(OCC2CCOCC2)cc(C(=O)Nc2ccccn2)n1", "IC50": 1460}, {"smiles": "Cc1cc(OCC2CCOCC2)cc(C(=O)Nc2nc(C)cs2)n1", "IC50": 610}, {"smiles": "Cc1cc(OCC2CCCCO2)cc(C(=O)Nc2ccc(F)cn2)n1", "note": "(stereo not drawn)", "IC50": "≥ 10000"}, {"smiles": "Cc1cc(OC2CCS(=O)(=O)C2)cc(C(=O)Nc2ccc(F)cn2)n1", "note": "(stereo not drawn)", "IC50": 634}, {"smiles": "Cc1cc(O[C@H]2CO[C@@H](C)C2)cc(C(=O)Nc2nc(C)cs2)n1", "IC50": "684 ± 107"}, {"smiles": "Cc1cc(OCC2CCOCC2)cc(C(=O)Nc2ccc(F)cn2)n1", "IC50": 5720}, {"smiles": "Cc1cc(OCC2CCCCO2)cc(C(=O)Nc2ccccn2)n1", "note": "(stereo not drawn)", "IC50": 2970}, {"smiles": "Cc1cc(OCC2CCCCO2)cc(C(=O)Nc2nc(C)cs2)n1", "note": "(stereo not drawn)", "IC50": 1920}, {"smiles": "CC(=O)N1CC(Oc2cc(C)nc(C(=O)Nc3ccc(F)cn3)c2)C1", "IC50": "756 ± 130"}, {"smiles": "Cc1cc(OC2CN(S(C)(=O)=O)C2)cc(C(=O)Nc2ccc(F)cn2)n1", "IC50": 1310}, {"smiles": "CCOCCOc1cc(C)nc(C(=O)Nc2ccccn2)c1", "IC50": 842}, {"smiles": "CCOCCOc1cc(C)nc(C(=O)Nc2ccc(F)cn2)c1", "IC50": 2100}, {"smiles": "COCCOCCOc1cc(C)nc(C(=O)Nc2ccccn2)c1", "IC50": 2540}, {"smiles": "COCCOCCOc1cc(C)nc(C(=O)Nc2nc(C)cs2)c1", "IC50": 954}, {"smiles": "COCCCOc1cc(C)nc(C(=O)Nc2ccc(F)cn2)c1", "IC50": 2630}, {"smiles": "COC[C@H](C)Oc1cc(C)nc(C(=O)Nc2ccccn2)c1", "IC50": 2720}, {"smiles": "COC[C@H](C)Oc1cc(C)nc(C(=O)Nc2nc(C)cs2)c1", "IC50": 932}, {"smiles": "COC[C@@H](C)Oc1cc(C)nc(C(=O)Nc2ccc(F)cn2)c1", "IC50": 9100}, {"smiles": "CCOCCOc1cc(C)nc(C(=O)Nc2nc(C)cs2)c1", "IC50": 364}, {"smiles": "COCCOCCOc1cc(C)nc(C(=O)Nc2ccc(F)cn2)c1", "IC50": 6930}, {"smiles": "COCCCOc1cc(C)nc(C(=O)Nc2ccccn2)c1", "IC50": 844}]}]}
